≈ marks a conversion by molar mass, not a printed value. Read-outs that look alike come from different tables or passages of the source.
How the values were obtained:
E. coli A15119 [1] = assay: in vivo therapeutic efficacy after intramuscular administration to mice infected intraperitoneally (PD50); conditions: Escherichia coli, A15119, im
Method: The in vivo therapeutic efficacy of two representative compounds after intramuscular administration to mice infected intraperitoneally with 0.5 ml of various bacterial suspension is shown in Table I. The values are given in PD50 (dose in mg/kg) to give protection to 50% of the infected mice.
(§1) MIC (mcg/ml) i.m. vs E. coli A15119

E. coli A15119 [2] = assay: in vitro MIC vs. E. coli A15119; assay type: cell-based; conditions: Escherichia coli
Excerpt: Also included in the table is the in vitro MIC's.
as §1

[3] = read-out: PD50 i.m. vs E. coli A15119, 41 LD50

Work on CO/N=C(\C(=O)N[C@@H]1C(=O)N2C(C(=O)O)=C(c3c(OC(C)C)c(=O)c3=O)CS[C@H]12)c1csc(N)n1 [Id3] yielded an ED50 (E. coli A15119 [1]; [3]) of 1.4 mg/kg, an ED50 (E. coli A15119 [1]; mice, i.m. dosing, infected i.p. with 0.5 ml bacterial suspension, challenge 143 LD50, dose protecting 50% of infected mice, read-out: PD50 i.m. vs E. coli A15119, 143 LD50) greater than 25 mg/kg and an MIC (E. coli A15119 [2]) of 1 µg/mL (≈ 1.92 µM).
CO/N=C(\C(=O)N[C@@H]1C(=O)N2C(C(=O)O)=C(c3c(N)c(=O)c3=O)CC[C@H]12)c1csc(N)n1 (relative stereo) [Id6] showed an ED50 (E. coli A15119 [1]; [3]) of less than 0.098 mg/kg, an ED50 (E. coli A15119 [1]; read-out: PD50 i.m. vs E. coli A15119, 143 LD50) of 1.7 mg/kg and an MIC (E. coli A15119 [2]) of 0.06 µg/mL (≈ 0.13 µM).
